Assay results: patent US20250288658A1 (priority 2022, published 2025)
Bridge positions count the residues as written; N and C are the ends. Square brackets hold non-standard residues; d marks the D form. Side chains are listed from the residue outwards. Peptide text beside a SMILES is read from it. * marks the point of attachment. ξ: configuration not given here. Acetyl(2-S-3ξ-cholesteryl) = CC(C)CCC[C@@H](C)[C@H]1CC[C@H]2[C@@H]3CC=C4CC(SCC(=O)*)CC[C@]4(C)[C@H]3CC[C@]12C; R8 = C=CCCCCCC[C@@](C)(N)C(=O)O; PEG4 = NCCOCCOCCOCCOCCC(=O)O; S5 = C=CCCC[C@](C)(N)C(=O)O

Test system: wild type EBOV
Conditions: 24 h

## CC[C@H](C)[C@H](NC(=O)[C@H](C)NC(=O)[C@H](CS)NC(=O)[C@H](CC(=O)O)NC(=O)[C@@H]1CCCN1C(=O)CNC(=O)[C@H](CC(C)C)NC(=O)[C@@H](NC(=O)[C@H](Cc1c[nH]cn1)NC(=O)[C@H](CS)NC(=O)[C@@H](NC(C)=O)[C@@H](C)O)[C@@H](C)CC)C(=O)N[C@@H](CCC(=O)O)C(=O)N1CCC[C@H]1C(=O)N[C@@H](Cc1c[nH]cn1)C(=O)N[C@@H](CC(=O)O)C(=O)N[C@@H](Cc1c[nH]c2ccccc12)C(=O)N[C@H](C(=O)N[C@]1(C)CCCCCCC=CCCC[C@@](C)(C(=O)N[C@@H](CCC(N)=O)C(=O)N[C@H](C(=O)N[C@H](C(=O)N[C@@H](Cc2c[nH]cn2)C(=O)N[C@@H](CC(=O)O)C(=O)N[C@@H](Cc2ccccc2)C(=O)N[C@H](C(=O)N[C@@H](CCCCNC(=O)CCOCCOCCOCCOCCNC(=O)CSC2CC[C@@]3(C)C(=CC[C@H]4[C@@H]5CC[C@H]([C@H](C)CCCC(C)C)[C@@]5(C)CC[C@@H]43)C2)C(N)=O)C(C)C)[C@@H](C)CC)[C@@H](C)CC)NC(=O)[C@H]([C@@H](C)CC)NC(=O)[C@H](CCCCN)NC(=O)[C@H](CC(=O)O)NC(=O)[C@H]([C@@H](C)O)NC(=O)[C@H]([C@@H](C)CC)NC(=O)[C@H](CC(N)=O)NC1=O)[C@@H](C)O (stereo partly shown) [SEQ ID NO:22, TCHILGPDCAIEPHDWT8NITDKIXQIIHDFV*] (Ac-TCHILGPDCAIEPHDWT[R8]NITDKI[S5]QIIHDFVK([PEG4-Acetyl(2-S-3ξ-cholesteryl)])-NH2; staple 18-25)
  IC50: ~1500 nM
